No end group written: not given here.

Consider four substances from US9694060B2, “Peptide vaccines based on the EGFRvIII sequence for the treatment of tumors” (The Board of Trustees of the Leland Stanford Junior …, priority 2012, dated 2017).

For the assay, the system named is HC2 20d2/c cells, an NIH-3T3 cell line engineered to overexpress EGFRvIII. Briefly: tumor regression / survival experiments in mice bearing EGFRvIII-overexpressing tumors. The note with it: for survival / effectiveness compared with Peptide G:KLH: Table 1 experiments; for survival / effectiveness compared with Peptide G:KLH / percent survival compared with Peptide G:KLH: in words; for percent survival compared with Peptide G:KLH: overall survival data (Table 2). It counts as in vivo, NIH Swiss mice. Here is the method: The conjugated peptide vaccines were tested in tumor regression experiments and survival results were compared among animals treating with one of the conjugated peptide vaccines or KLH only.
Additional experiments were performed repeating the experiments described above.
For all experiments, the peptides were synthesized with the sequence as indicated with the cysteine at the carboxy terminus added for the purposes of conjugation. Peptides were then conjugated at a 1:1 w/w ratio to maleimide activated Keyhole Limpet Hemocyanin (KLH) for 24 hours. Following conjugation, the peptide:KLH conjugate was dialyzed against PBS to remove unconjugated peptide
NIH Swiss mice were inoculated subcutaneously in the right hand flank with 2×10^6 HC2 20d2/c cells, an NIH-3T3 cell line engineered to overexpress EGFRvIII. This cell line has been previously used to study anti-tumor responses to SEQ ID NO:2 conjugated to KLH (Moscatello et al., Cancer Res. 57:1419). On the 7th day following inoculation, mice were immunized with 100 μg of conjugated peptide in 100 μl of PBS emulsified with 100 μl of Freund's complete adjuvant. On the 14th day, mice were immunized with 100 μg of peptide in 100 μl of PBS emulsified with 100 μl of Freund's incomplete adjuvant.

The mark [1] stands for this setting: Table 1, first experiments, s.c. tumor, immunized day 7 and day 14 with 100 μg conjugated peptide in Freund's adjuvant.
Where [2] appears, read: Table 2, overall survival data compiled after additional repeat experiments, immunized day 7 and day 14 with 100 μg.

Consider “Keyhole Limpet Hemocyanin [KLH only, reference compound]”, for which the Survival is, setting by setting: under setting [1], 47%; under setting [2], 32%.
Take “LEEKKANYVVTDHC:KLH (also: conjugated to KLH, site not given here) [Peptide A: KLH]”: the “survival / effectiveness compared with Peptide G:KLH” value was “better survival rates” and the “percent survival compared with Peptide G:KLH” value is “higher percent survival”. The Survival under setting [1] was determined as 90%. Moreover, the Survival under setting [2] was 80%.
For “LEEKKPNYVVTDHC:KLH (also: conjugated to KLH, site not given here) [Peptide P: KLH]”, in that order: “better survival rates”, “higher percent survival”, 70% and 65%.
For “LEEKKVNYVVTDHC:KLH (also: conjugated to KLH, site not given here) [Peptide V: KLH]”, in that order: “better survival rates”, “higher percent survival”, 70% and 70%.
